# Test results from US6348488B1, “Remedies for motor dysfunction and GAPDH expression inhibitors” (Ono Pharmaceutical Co., Ltd., priority 1998, dated 2002).
# Columns and labels:
# [1] = tested on: cerebellar granule cells (CGC); assay: cells; type: cell-based; settings: for Age-induced apoptosis of CGC: added at 7 DIV, agent 0.03 μM, THA 10 μM
# Experimental: A) Preparation of primary culture cerebellar granule cells (CGC)
# According to the method by Ishitani et al., CGC was prepared as follows (Ishitani et al., J. Neurochem., 66:928-35, 1996).
# Cerebellum was excised from an 8-day old Sprague-Dawley rat and cut to 0.4 mm square cubes using Mcllawin tissue chopper. Further, the cubes were digested at 37° C. for 15 minutes in a 0.025% trypsin-containing Krebs phosphate buffer (KPB).
# After the reaction was stopped with KPB containing 0.008% soybean trypsin inhibitor and 0.0016% deoxyribonuclease I, the digested cubes were triturated in KPB containing 0.01% deoxyribonuclease I and 0.05% soybean trypsin inhibitor using a convergent Pasteur pipette to obtain dispersed CGC.
# The cells were suspended in a basal modified Eagle's medium (BME) containing 10% fetal calf serum (FCS), 2 mM glutamine, 50 μg/ml gentamycin and 25 mM potassium chloride (KCl), and seeded on a plastic dish (35 mm) coated with poly-L-lysine (molecular weight: 3-7×10^4, 100 μg/ml) to a cell density of 2.1×10^5 live cells/cm^2.
# Under 5% carbon dioxide (CO2), culture was started at 37° C. and after 18 to 24 hours cytosine arabinofuranoside (10 μM) for preventing the growth of non-neuronal cells was added and culture was continued. At 7 DIV (days in vitro), various chemicals were added and thereafter, culture was continued in the same medium.
# B) Measurement of viability by live double staining method with FDA-PI
# CGC after desired culture days was washed twice with 2 ml of Locke's solution (154 mM NaCl, 5.6 mM KCl, 2.3 mM CaCl2, 1.2 mM MgSO4, 5 mM HEPES, 5.6 mM glucose, 3.6 mM NaHCO3, pH 7.4) and then stained with 0.0008% fluorescein diacetate (FDA) and 0.0002% propidium iodide (PI) for 3 to 5 minutes.
# Fluorescent observation was performed using epi-illuminated fluorescent microscope (Olympus, IMT2-RFL) equipped with a dichroic mirror for B excitement (IMT2-DMB), an auxiliary excitation filter (EY455) and an auxiliary filter (O530).
# FDA was decomposed by an esterase in the living cells to emit fluorescence (fluorescein) from green to yellow fluorescence, on the other hand PI permeates through dead cell membranes and binds with DNA to emit from red to brown fluorescence, so that the both fluorescences can be observed simultaneously using the above-described fluorescence microscopy.
# Viability was calculated according to the following formula.
# Viability=[FDA stained cell number/(FDA stained cell number+PI stained cell number)]×100
# GAPDH mRNA = GAPDH mRNA expression in CGC, Northern blotting analysis; type: cell-based, rat; settings: addition at 7 DIV; measured at 15 DIV (CGC)
# Experimental: Preparation of the primary culture cerebellar granule cells (CGC) was performed in accordance with Test Example 3 A).
# Then, according to the method of Fukamauchi et al., total RNA was extracted from CGC of the desired culture day number. The total RNA (9 μg/lane) was electrophoresed on 1.2% agarose formaldehyde gel and transferred to a nylon membrane (Hybond-N, Amersham). Thereafter, it was subjected to prehybridization at 42° C. for 3 to 5 hours in a solution containing 5×Denhardt's solution (0.1% Ficol 400, 0.1% polyvinyl pyrrolidone, 0.1% BSA), 50% formamide, 50 μg/ml salmon testis DNA, and 0.5% SDS (Fukamauchi et al., J. Neurochem., 56:716-9, 1991, Sunaga et al., Neurosci. Lett., 163:27-30, 1993).
# Using a Multi prime DNA labelling kit (Amersham), human GAPDH cDNA probe (Clontech, Palo Alto, Calif., U.S.A.) labeled with [α-^32P] deoxycytidine 5′-triphosphate (3,000 Ci/mm pl) was thermally denatured and thereafter added to the prehybridization solution, followed by hybridization at 42° C. for 24 hours.
# The membrane was fully washed at 60° C. for 10 minutes in 0.1% SDS containing 0.1×SSC ([…], pH 7.0), exposed on a high-sensitivity X-ray film (IPSO 3000, Fuji) to prepare an autoradiogram. Quantitative analysis was performed using a CCD type image analyzer (BIOPROFIL, M&S).
# [2] = tested on: 30 types or more of surface receptors inclusive of overactivated NMDA receptors; assay: Influence on surface receptors in age-induced apoptosis of CGC
# GAPDH protein = GAPDH protein expression in CGC, SDS-PAGE and Western blotting analyses; type: cell-based, rat; settings: process of age-induced cell death
# Experimental: The cultured cells of the desired culture day number were washed three times with 2 ml of PBS and then stripped off by a rubber policeman and the cells were recovered by centrifugation at 188×G at 4° C. for 5 minutes. The cells were resuspended in ice-cooled 50 mM Tris-HCl buffer (pH 7.4) and the cell membranes were destroyed by sonication.
# The homogenate was centrifuged at 2×10^5×G at 4° C. for 30 minutes to obtain a precipitate (insoluble fraction (pellet)), which was resuspended in the same buffer and then was subjected to quantitative determination of protein together with the supernatant (soluble “supernatant”). […]
# The gel after the electrophoresis was stained with 0.1% Coomassie blue. The quantitative analysis of the amount of 38-kDa protein band was performed using a CCD type image analyzer (BIOPROFIL, N&S). […]
# The PDVF membrane after the transcription was treated in 0.5% skim milk containing TBS-T (20 mM Tris, 137 mM NaCl, 0.05% Tween 20, pH 7.4) for 60 minutes to effect blocking, and then was allowed to react at room temperature for 60 minutes in TBS-T containing primary antibody (anti-rabbit GAPDH monoclonal antibody diluted to 1:15000). […] After washing the PVDF membrane, quantitative determination of GAPDH protein was performed on a high-sensitivity X-ray film using a detector for chemiluminescence (Renaissance TM, NEN).
# spinal cord impact model = assay: Motor dysfunction inhibitory action in spinal cord impact model (treadmill maximum walking distance); type: in vivo, rat
# Experimental: A male Wistar rat (about 250 g) was placed in a supine position under anesthesia with sodium pentobarbital (40 mg/kg, i.p.). After partial laminectomy to remove the fifth lumber spine, a silicon rubber (height: 1 mm, length: 4 mm, and width: 1.25 mm) was inserted in the fourth and sixth lumber spines.
# After the operation, the maximum walking distance was measured using a treadmill on Day 1, 2, 3, 5, 7 and 14.
# That is, the treadmill was run at a speed starting from 10 m/min, with an increment at a rate of 5 m/min every 3 minutes thereafter until the time when the animal dropped from the walking belt and could not walk any further. The walking distance was calculated from the time when the animal could not walk any further.
# [3] = Acute toxicity, rat, intravenous administration; type: in vivo
# [4] = tested on: spinal cord injury crush lesion model; assay: Motor dysfunction in spinal cord injury (crush lesion model, modified Tarlov scale); type: in vivo, rat; settings: 10 mg/kg, versus vehicle control group
# Experimental: A male Wistar rat (about 250 to 300 g) was subject to dorsal median incision and laminectomy to remove thoracic spine (T11) under anesthesia with sodium pentobarbital and then the dura mater was exposed. A metal pole (diameter: 3 mm, length: 40 mm, weight: 3.8 g) was placed on the dura mater and a load of 10 g was dropped from a height of 10 cm through a cylinder to prepare a crush lesion model. Thereafter, the muscle layer and skin were sutured. The behavioral deficit was evaluated using modifications of Tarlov scale. That is, the evaluation was made based on mean scores of both hind legs according to the following scores. Neurologic scores: 0 Complete paralysis of hind legs 1 Slight movements of hind legs were observed. 2 Movements of hind legs were clear but the body weight could not be supported so that autonomic movement was impossible. 3 The animal crept and could not support the body weight. 4 The animal could support the body weight when standing or walking. However, clearly disabled. 5 Posture and walking ability are close to those of normal animals.
Compound,"viability at 0.03 µM ([1]; Rattus norvegicus, 0.03 μM added at 7 DIV, at 17 DIV)",Age-induced apoptosis of CGC [1],Concentration exhibiting a protective action to neurons ([1]; at 17 DIV),Increase in GAPDH mRNA (GAPDH mRNA),Influence on surface receptors [2],Increase in the 38-kDa protein (GAPDH) in cell membrane fraction (GAPDH protein),"Maximum Walking Distance (spinal cord impact model; 1 mg/Kg, Day 2 after administration)","Maximum Walking Distance (spinal cord impact model; 1 mg/Kg, Day 4 after administration)","Maximum Walking Distance (spinal cord impact model; 1 mg/Kg, Day 11 after administration)","Maximum Walking Distance (spinal cord impact model; 10 mg/Kg orally, Day 2 after administration)","Maximum Walking Distance (spinal cord impact model; 10 mg/Kg orally, Day 4 after administration)","Maximum Walking Distance (spinal cord impact model; 10 mg/Kg orally, Day 11 after administration (day 14 after operation))","Maximum Walking Distance (spinal cord impact model; 10 mg/Kg orally, Day 11 after administration (day 14 after operation), listed as N-[3-[N-(4-chlorophenylmethyl)carbamoyl]propanoyl]-L-prolinal)","Influence on the autonomic movement and sensitivity to pain (spinal cord impact model; rat, spinal cord impact model)",Acute toxicity (LD50) [3],Degree of recovery of motor dysfunction (neurologic score) ([4]; day 9 up to day 21 of the operation),Change in body weight after the operation [4],Inhibition of the cell death ([1]; 1 μM),Inhibition of the cell death ([1]; 10 μM)
"O=C[C@@H]1CCCN1C(=O)CCC(=O)NCc1ccc(Cl)cc1 [Agent of invention, N-[3-[N-(4-chlorophenylmethyl)carbamoyl]propanoyl]-L-prolinal]",92 ± 4.4%,inhibited,several,completely inhibited,no influence,inhibited the increase,237 ± 49 m,414 ± 58 m,347 ± 77 m,329 ± 15 m,455 ± 34 m,408 ± 30 m,408±30 m,no influence,200 mg/kg body weight,tended to be superior as compared with the vehicle control group,tended to be superior to the vehicle control group,,
"Nc1c2c(nc3ccccc13)CCCC2 [THA, 9-amino-1,2,3,4-tetrahydroacridine, reference compound]",,inhibited,,,,,,,,,,,,,,,,about 30%,almost completely
